Test results from PMC6271101, “Antioxidant, 5-Lipoxygenase Inhibitory and Cytotoxic Activities of Compounds Isolated from the Ferula lutea Flowers” (Molecules, 2014).
“And” between values parts separate entries of the source, which are not always exact repeats. Equal entries are not always repeated. Where two headings read alike, the source gives them in different places.

Assays:
[1] = target: T1, 5-lipoxygenase (Glycine max, UniProt P08170); test: 5-Lipoxygenase inhibitory assay (linoleic acid, 234 nm); type: biochemical, Soybean; settings: for inhibition at 80 µM: read-out: 5-Lipoxygenase Inhibitory (% at 80 µmol/L)
T1 sequence (P08170 1-839): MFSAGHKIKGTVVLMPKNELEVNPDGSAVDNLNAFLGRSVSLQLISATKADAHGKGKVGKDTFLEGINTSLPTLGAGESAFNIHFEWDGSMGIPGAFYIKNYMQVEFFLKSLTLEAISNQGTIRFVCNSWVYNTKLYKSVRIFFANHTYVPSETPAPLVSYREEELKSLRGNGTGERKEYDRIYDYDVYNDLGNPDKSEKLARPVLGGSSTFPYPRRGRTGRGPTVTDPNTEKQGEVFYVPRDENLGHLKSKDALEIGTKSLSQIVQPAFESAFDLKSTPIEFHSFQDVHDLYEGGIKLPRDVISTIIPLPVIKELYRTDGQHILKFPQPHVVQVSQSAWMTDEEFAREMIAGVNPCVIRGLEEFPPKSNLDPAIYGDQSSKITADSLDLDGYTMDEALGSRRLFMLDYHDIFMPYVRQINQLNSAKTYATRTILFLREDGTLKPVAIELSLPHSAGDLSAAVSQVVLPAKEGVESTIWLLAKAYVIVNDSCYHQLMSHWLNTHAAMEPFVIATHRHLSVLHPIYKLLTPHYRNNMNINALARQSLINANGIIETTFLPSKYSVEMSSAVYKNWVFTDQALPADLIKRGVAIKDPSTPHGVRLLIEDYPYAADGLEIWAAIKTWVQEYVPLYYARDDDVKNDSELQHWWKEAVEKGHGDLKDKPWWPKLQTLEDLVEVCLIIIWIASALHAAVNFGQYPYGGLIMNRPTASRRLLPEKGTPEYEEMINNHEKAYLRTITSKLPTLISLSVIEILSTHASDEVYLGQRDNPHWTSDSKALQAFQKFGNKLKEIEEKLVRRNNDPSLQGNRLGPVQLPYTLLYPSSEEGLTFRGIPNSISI
Protocol: The anti-inflammatory activity activities of the isolates was determined on Soybean lipoxygenase as described by Khlifi et al. with some modifications. 20 µL of each compound was mixed individually with 150 µL sodium phosphate buffer (pH 7.4) containing 20 µL of 5-lipoxygenase and 60 µL of linoleic acid (3.5 mM), yielding a final volume of 250 µL. […] The mixture was incubated at 25 °C for 10 min, and the absorbance was determined at 234 nm. The absorption change with the conversion of linoleic acid to 13-hydroperoxyoctadeca-9,11-dienoate (characterized by the appearance of the conjugated diene at 234 nm) was followed for 10 min at 25 °C. […] All measurements were performed in triplicate.

[2] = MTT cytotoxicity assay, OVCAR-3; type: cell-based; settings: human, OVCAR-3 ovary cells; OVCAR-3, MTT; read-out: Cytotoxic Activity (IC50 µmol/L) OVCAR-3
Protocol: (§1) The human cancer cell line was used for cytotoxic assay: (HCT-116, IGROV-1 and OVCAR-3). The cells were grown in RPMI-1640 medium supplemented with 10% faetal calf serum (Gibco, Langley, OK, USA), air and 5% CO2. The isolate was added to a medium containing 1 × 10^6 cells/mL, 2 mM L-glutamine and 50 μg/mL gentamycin, and kept at 37 °C in a fully humidified atmosphere. After 18 h of incubation at 37 °C in 5% CO2 incubator, the tubes were centrifuged at 8000 g for 10 min. The supernatant was decanted, and the pellets taken and washed with 20 mM of phosphate buffered saline solution. Each pellet was dissolved in 100 μL (2 mg/mL) MTT solution in a tube, incubated at 22 °C for 4 h and centrifuged at 8000 g for 10 min. All the pellets were dissolved in 500 μL DMSO and read spectrophotometrically at 500 nm. IC50 was calculated by nonlinear regression analysis. Doxorubicin (HCT116) and tamoxifen (IGROV-1 and OVCAR-3) were used as positive control.

[3] = MTT cytotoxicity assay, IGROV-1; type: cell-based; settings: human, IGROV-1 ovary cells; IGROV-1, MTT; read-out: Cytotoxic Activity (IC50 µmol/L) IGROV-1
Protocol: as §1

[4] = MTT cytotoxicity assay, HCT-116; type: cell-based; settings: human, HCT-116 colon carcinoma cells; HCT-116, MTT; read-out: Cytotoxic Activity (IC50 µmol/L) HCT-116
Protocol: as §1

[5] = test system: LoVo/Doxo; design: method as in PMID 15387667; settings: read-out: IC50 against LoVo/Doxo; cited from earlier work
[6] = test system: human fibrosarcoma cell line HT-1080; design: method as in PMID 15387667; settings: read-out: IC50 against HT-1080; cited from earlier work
[7] = test system: colon cancer cell line LoVo; design: method as in PMID 15387667; settings: read-out: IC50 against LoVo; cited from earlier work
[8] = ABTS radical-scavenging test; settings: mean ± SD of three measurements; read-out: IC50 (µmol/L) ABTS+ Assay
Protocol: The radical scavenging capacity of the samples for the ABTS (2,2′-azinobis-3-ethylbenzothiazoline-6-sulphonate) radical cation was determined as described by Khlifi et al., [33] with some modifications. ABTS was generated by mixing a 7 mM of ABTS at pH 7.4 (5 mM NaH2PO4, 5 mM Na2HPO4 and 154 mM NaCl) with 2.5 mM potassium persulfate (final concentration) followed by storage in the dark at room temperature for 16 h before use. The mixture was diluted with ethanol to give an absorbance of 0.70 ± 0.02 units at 734 nm using spectrophotometer. For each sample, diluted solution (20 μL) was allowed to react with fresh ABTS solution (180 μL), and then the absorbance was measured 6 min after initial mixing. […] The capacity of free radical scavenging IC50 was determined using the same previously used equation for the DPPH method. All measurements were performed in triplicate.

[9] = previously tested, cited from earlier work
[10] = test system: human promyelocytic leukemia cell HL-60; design: method as in PMID 15387667; settings: read-out: IC50 against HL-60; cited from earlier work
[11] = DPPH free radical scavenging test; settings: mean ± SD of three measurements; read-out: IC50 (µmol/L) DPPH Assay
Protocol: The antioxidant activity of compounds was assessed according to their DPPH scavenging ability as described by Khlifi et al., [33] with some modifications. Reaction mixtures, containing 0.1 mL of the relevant compounds solution in methanol, with concentrations ranging 3 mg/mL and 0.1 mL of a 0.2 mM DPPH methanolic solution, were added to 96-well microtiter plates and incubated at 25 °C for 30 min. Absorbances were measured at 520 nm, the wavelength of maximum absorbance of DPPH, were recorded as A(sample). A blank experiment was also carried out applying the same procedure to a solution without the test material and the absorbance was recorded as A(blank).
Ascorbic acid was used as a standard. All measurements were performed in triplicate.

[12] = test system: 5-lipoxygenase isolated from rat basophilic leukaemia cells (RBL-1); design: method as in doi:10.1016/j.foodchem.2009.09.088; settings: at 20 µmol/L; cited from earlier work
[13] = design: method as in doi:10.1016/j.foodchem.2011.09.005; settings: previously tested; read-out: Fe3+ reducing power ability IC50; cited from earlier work
[14] = design: method as in doi:10.1016/j.foodchem.2011.09.005; settings: previously tested; read-out: hydrogen peroxide (H2O2) inhibition IC50; cited from earlier work
[15] = test system: liver cell line Hep-G2; design: method as in PMID 18481014; settings: read-out: IC50 against Hep-G2; cited from earlier work
[16] = test system: human chronic myelogenous leukemia cell line K562; design: method as in PMID 22913434; settings: read-out: IC50 against K562; cited from earlier work
[17] = read-out: DPPH radical scavenging activity IC50

SMILES	inhibition at 80 µM [1]	IC50 at 18 h [2]	IC50 at 18 h [3]	IC50 at 18 h [4]	5-Lipoxygenase Inhibitory (% at 80 µmol/L) [1]	IC50 [8]	IC50 [11]	also measured
C/C(O[C@@H]1O[C@H](CO)[C@@H](O)[C@H](O)[C@H]1O)=C1/C=CC(=O)O1 [Compound 1, (E)-5-Ethylidenefuran-2(5H)-one-5-O-β-D-glucopyranoside]	16.9 ± 1.2%	> 100 µmol/L	> 100 µmol/L	> 100 µmol/L	–	–	–	–
C/C(=C\C(=O)O)CO [Compound 2, 4-Hydroxy-3-methylbut-2-enoic acid]	0%	> 100 µmol/L	> 100 µmol/L	> 100 µmol/L	did not exhibit activities	–	–	–
CC1=CC(=O)C2CC1(O[C@@H]1O[C@H](CO)[C@@H](O)[C@H](O)[C@H]1O)C2(C)C (stereo partly drawn) [Compound 3, Verbenone-5-O-β-D-glucopyranoside]	12.4 ± 0.8%	> 100 µmol/L	> 100 µmol/L	> 100 µmol/L	–	–	–	–
O=C(/C=C/c1ccc(O)c(O)c1)O[C@@H]1C[C@](O)(C(=O)O)C[C@@H](O)[C@H]1O [Compound 4, 5-O-Caffeoylquinic acid]	17.1 ± 1.1%	> 100 µmol/L	> 100 µmol/L	> 100 µmol/L	–	–	–	–
COC(=O)/C=C/c1ccc(O)c(O)c1 [Compound 5, Methyl caffeate]	0%	25 ± 1.1 µmol/L	17.8 ± 1.1 µmol/L	22.5 ± 2.4 µmol/L	did not exhibit activities	40.8 ± 0.4 µmol/L	39.2 ± 0.5 µmol/L	IC50 [5]: ≥ 40 µM; IC50 [6]: 11.1 ± 3.5 µM; IC50 [7]: 5.8 ± 1.1 µM; IC50 [9, 17]: 14 ± 2.3 µM; IC50 [10]: 7.5 ± 1.6 µM
COC(=O)[C@]1(O)C[C@@H](OC(=O)/C=C/c2ccc(O)c(O)c2)[C@@H](O)[C@H](OC(=O)/C=C/c2ccc(O)c(O)c2)C1 [Compound 6, Methyl 3,5-O-Dicaffeoylquinate]	–	> 100 µmol/L	> 100 µmol/L	> 100 µmol/L	–	20 ± 0.3 µmol/L	26.6 ± 1.3 µmol/L	percent inhibition of 5-lipoxygenase (RBL-1) [12]: 15.1%; IC50 [1]: 5.3 µM and 5.28 µM; IC50 [13]: 270 ± 7.37 µM; IC50 [14]: 316.4 ± 2.86 µM; IC50 ([9]; read-out: DPPH IC50): 10.3 ± 0.24 µM; IC50 [15]: 72.7 ± 6.2 µM
O=C(/C=C/c1ccc(O)c(O)c1)O[C@@H]1C[C@](O)(C(=O)O)C[C@@H](OC(=O)/C=C/c2ccc(O)c(O)c2)[C@H]1O [Compound 7, 3,5-O-Dicaffeoylquinic acid]	–	> 100 µmol/L	> 100 µmol/L	> 100 µmol/L	–	19.7 ± 0.7 µmol/L	18 ± 0.5 µmol/L	percent inhibition of 5-lipoxygenase (RBL-1) [12]: inactive; IC50 [1]: 10 ± 0.2 µM; IC50 [9, 17]: 18.2 ± 0.5 µM
COc1cc(-c2oc3cc(O)cc(O)c3c(=O)c2O[C@@H]2O[C@H](CO[C@@H]3O[C@@H](C)[C@H](O)[C@@H](O)[C@H]3O)[C@@H](O)[C@H](O)[C@H]2O)ccc1O [Compound 8, Isorhamnetin-3-O-α-L-rhamnopyranosyl(1→6)-β-D-glucopyranoside,narcissin]	0%	> 100 µmol/L	> 100 µmol/L	> 100 µmol/L	did not exhibit activities	> 300 µmol/L	> 300 µmol/L	IC50 [16]: 800 µM; DPPH radical scavenging activity [9]: no activity
CC(C)(O)[C@@H]1Cc2cc3ccc(=O)oc3cc2O1 [Compound 9, (−)-Marmesin]	0%	> 100 µmol/L	> 100 µmol/L	50 ± 4.9 µmol/L	did not exhibit activities	–	–	–
CC(C)=CCOc1c2ccoc2cc2oc(=O)ccc12 [Compound 10, Isoimperatorin]	0%	> 100 µmol/L	> 100 µmol/L	> 100 µmol/L	did not exhibit activities	–	–	–
Cc1ccc(C)c(C=O)c1C [Compound 11, 2,3,6-Trimethylbenzaldehyde]	0%	> 100 µmol/L	> 100 µmol/L	> 100 µmol/L	did not exhibit activities	–	–	–
COc1cccc2c1C(=O)c1c(O)c3c(c(O)c1C2=O)C[C@@](O)(C(=O)CO)C[C@@H]3O[C@H]1C[C@H](N)[C@H](O)[C@H](C)O1 [Doxorubicin, reference compound]	–	–	–	0.18 ± 0.01 µmol/L	–	–	–	–
CC/C(=C(\c1ccccc1)c1ccc(OCCN(C)C)cc1)c1ccccc1 [Tamoxifen, tamoxifen, reference compound]	–	1.3 ± 0.1 µmol/L	2 ± 0.1 µmol/L	–	–	–	–	–
O=C1O[C@H]([C@@H](O)CO)C(O)=C1O [Vitamin C, ascorbic acid, reference compound]	–	–	–	–	–	23.3 ± 0.1 µmol/L	25 ± 1.1 µmol/L	–
